From ChEMBL document CHEMBL2440095, “Synthesis and activity of novel tetrazole compounds and their pyrazole-4-carbonitrile precursors against Leishmania spp” (Bioorg Med Chem Lett, 2013)

Legend:
[1] = test system: Leishmania amazonensis; experiment: Antipromastigote activity against Leishmania amazonensis MHOM/BR/77/LTB0016 after 24 hrs by MTT assay; assay type: functional, organism-based; settings: MHOM/BR/77/LTB0016, 24 h
[2] = test system: Leishmania braziliensis; experiment: Antipromastigote activity against Leishmania braziliensis MCAN/BR/98/R619 after 24 hrs by MTT assay; assay type: functional, organism-based; settings: MCAN/BR/98/R619, 24 h
[3] = Cytotoxicity against mouse RAW264.7 cells after 24 hrs by MTT assay; assay type: cell-based

N=C(N)c1ccc(OCCCCCOc2ccc(C(=N)N)cc2)cc1 [PENTAMIDINE]
IC50 [1]: 3.38 µM
IC50 [2]: 13 µM
CC50 at 24 h [3]: 25.5 µM
